9 molecules from PubChem BioAssay (NCI) can be followed below.

Where “and” joins values, the source holds several entries; their conditions need not be identical. Identical values can stand only once.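 How tested: cells in 96-well plates exposed to compound for 48 hours at five concentrations. GI50: concentration for 50% inhibition of growth. TGI: total growth inhibition.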

Experiment in all cases: growth of human tumour cells (NCI), 48 h
Experiment [1] relates to A549 NSCLC.
In experiment [2] the test system is ACHN renal.
The test system of experiment [3] is DU-145 prostate.
For experiment [4], the system named is HOP-92 NSCLC.
Experiment [5] has as its system IGROV1 ovarian.
Experiment [6] deals with MDA-MB-231 breast.
Experiment [7] relates to NCI-H226 lung.
In experiment [8] the test system is RXF 393 renal.
Experiment [9] concerns SF-295 CNS.
Experiment [10] deals with SN12C renal.

For the molecule `COc1cc(/C=C/C(=O)c2c(C)n([O-])c3ccccc3[n+]2=O)cc(OC)c1OC`, the GI50 in experiment [1] was 8.69 µM; in [2] it was 10.8 µM; in experiment [3] it was 2.17 µM; in [4] it was 3.47 µM; in experiment [5], 3.99 µM; in [6], 9.57 µM. The GI50 is 15.2 µM in [7], 5.85 µM in [8], 4.34 µM in experiment [9] and 5.82 µM in experiment [10]. For the same molecule, the TGI in experiment [1] was found to be 21.6 µM; in experiment [2] it was 22.7 µM; in [3] it was 13.5 µM; in [4] it was 15.7 µM; in experiment [5], 15.6 µM; in experiment [6], 22.4 µM. The TGI in experiment [7] came to 34 µM; in experiment [8], 20.4 µM; in experiment [9], 14.8 µM; in experiment [10] it was 20.3 µM.

In the case of `O=C1/C(=C/c2ccc(F)cc2)COc2ccc(O)c(O)c21`, the GI50 in [1] is 3.32 µM; in experiment [2], 1.43 µM; in experiment [3], 3.02 µM; in experiment [5] it was 1.1 µM; in [6] it was 1.43 µM; in experiment [7], 2.47 µM. For the same molecule, the GI50 in [8] is 1.85 µM; in [9], 8.09 µM; in experiment [10], 1.26 µM. Further, the TGI was > 100 µM in experiment [1]; 2.89 µM in experiment [2]; 43.6 µM in [3]; 3.94 µM in experiment [5]; 6.25 µM in [6]; 7.08 µM in [7]. The TGI was 3.64 µM in experiment [8], > 100 µM in experiment [9] and 3.79 µM in experiment [10].

Take `NC(CSC(c1ccccc1)(c1ccccc1)c1ccccc1)C(=O)O` (configuration not stated): the GI50 was 4.86 µM and 2.75 µM in experiment [1]; 20.2 µM and 9.65 µM in [2]; 6.02 µM and 4.1 µM in [3]; 2.17 µM and 10.1 µM in experiment [4]; 3.98 µM and 4.69 µM in experiment [5]; 1.08 µM in [6]. For the same molecule, the GI50 in experiment [7] is 22.1 µM; in experiment [8], 0.708 µM and 0.454 µM; in experiment [9], 0.485 µM and 0.522 µM and 2.65 µM; in experiment [10] it was 2.99 µM and 0.877 µM. Moreover, the TGI in experiment [1] was 82.1 µM and > 100 µM; in [2], 79.5 µM and > 100 µM; in experiment [3], 85.5 µM and > 100 µM; in [5], 84.8 µM and > 100 µM; in [6], 4.65 µM and 6.45 µM; in experiment [7], 90.1 µM and > 100 µM. Also, the TGI was 22.8 µM and > 100 µM in [8]; 23.8 µM and 68.3 µM and > 100 µM in [10].

Regarding `Nc1n[n+]([O-])c2ccc(Cl)cc2[n+]1[O-]`, the TGI in experiment [1] is > 100 µM; in experiment [2] it was > 100 µM; in experiment [3] it was > 100 µM; in [5], 25.3 µM; in experiment [6], > 100 µM; in experiment [7], 72.9 µM. Besides, the TGI was 54.1 µM in experiment [8], > 100 µM in experiment [9] and > 100 µM in experiment [10].

With `O=C(CSSCC(=O)c1ccc(Cl)cc1)c1ccc(Cl)cc1`, the GI50 in [1] was 10.4 µM; in experiment [2], 8.75 µM; in [3] it was 4.77 µM; in experiment [4], 5.37 µM; in experiment [5], 5.83 µM; in experiment [6] it was 4.93 µM. The GI50 in [7] was 11.7 µM; in [8] it was 4.49 µM; in experiment [9], 2.58 µM; in experiment [10], 3.7 µM. Also, the TGI was 43.2 µM in experiment [1]; 24.1 µM in [2]; 91.3 µM in [3]; 19.4 µM in experiment [4]; 26.6 µM in experiment [5]; 24.2 µM in [6]. The TGI in experiment [7] is 30.7 µM; in [8], 14.7 µM; in experiment [9], 15.2 µM; in [10], 36.4 µM.

On to `Cc1cccc(CNc2c3ccccc3nc3ccccc23)c1`, for which the GI50 in experiment [1] is 1.88 µM; in experiment [2], 1.52 µM; in experiment [3], 3.28 µM; in [4] it was 1.22 µM; in [5], 2.17 µM; in [6] it was 1.65 µM. Moreover, the GI50 was 1.99 µM in experiment [7], 1.54 µM in experiment [8], 2.13 µM in experiment [9] and 2.4 µM in experiment [10]. Also, the TGI in experiment [1] amounted to 4.86 µM; in experiment [2], 3.47 µM; in experiment [3], 11.7 µM; in experiment [4], 4.57 µM; in experiment [5] it was 6.79 µM; in experiment [6] it was 4.07 µM. Besides, the TGI in experiment [7] turned out to be 6.02 µM; in [8], 3.07 µM; in experiment [9], 6.67 µM; in experiment [10] it was 10.1 µM.

Regarding `O=C1OC(c2ccc([N+](=O)[O-])cc2)=N/C1=C\c1ccc(Cl)cc1`, the TGI in [1], in experiment [2], in experiment [3], in experiment [4], in experiment [5] and in [6] was > 100 µM each time. Further, the TGI in experiment [7], in [8], in experiment [9] and in experiment [10] was > 100 µM each time.

With `CN(c1cccc(C(=O)O)c1)c1cc(O/N=[N+](\[O-])N(C)C)c([N+](=O)[O-])cc1[N+](=O)[O-]`, the GI50 in experiment [1], in experiment [2], in experiment [3], in experiment [5], in experiment [6] and in experiment [7] was > 100 µM each time. Moreover, the GI50 in experiment [8], in experiment [9] and in experiment [10] was > 100 µM each time. In addition, the TGI in experiment [1], in experiment [2], in experiment [3], in experiment [5], in [6] and in experiment [7] was > 100 µM in each case. Moreover, the TGI in experiment [8], in experiment [9] and in [10] was > 100 µM in each case.

`O=C(Nc1cc(Cl)c(I)c(Cl)c1)C(F)(F)F`: the TGI is > 100 µM in experiment [2]; > 100 µM in [3]; 46.9 µM in experiment [4]; > 100 µM in experiment [5]; > 100 µM in [6]; 66.8 µM in [7]. The values for the TGI in experiment [8], in experiment [9] and in experiment [10] were 34.5 µM, > 100 µM and > 100 µM, respectively.
